The source of these data is article PMC6457190, “Tridecaptin-inspired antimicrobial peptides with activity against multidrug-resistant Gram-negative bacteria” (MedChemComm, 2019).

One data set relates to P. pseudoalcaligenes. The data set is classed as cell-based, Pseudomonas pseudoalcaligenes. The settings on record: for Peptide MIC: 18 h; for antimicrobial activity relative to Oct-TriA1: against P. pseudoalcaligenes. The protocol:
(§1) IV. Antimicrobial testing
(§2) All minimum inhibitory concentrations (MICs) were determined according to Clinical and Standards Laboratory Institute (CLSI) guidelines. Briefly, peptides were dissolved in Muller-Hinton Broth (MHB) and serial dilutions made across a 96 well plate. Each well was inoculated with a suspension of the required bacterial strain to reach a final inoculum of 5 x 10^5 colony forming units per mL. The MIC was taken as the lowest concentration with no visible growth after 18 hours.

The next data set has as its system E. cloacae. The data set is classed as cell-based, Enterobacter cloacae. The settings on record: 18 h. The method, then:
as §1, §2

The next data set concerns Equine erythrocytes. In kind it is cell-based, horse. The settings on record: red cells of equine, 100 μg mL^–1. The method, then: Having assessed the antimicrobial activity of peptides 1–8 we next proceeded to assess their haemolytic activities (Table 2). Haemolytic activity was tested at 100 μg mL^–1, as the concentration required for haemolysis should be higher than antimicrobial MICs. Equine erythrocytes were exposed to peptides 1–8 and incubated for 30 min at 37 °C (Table 2). […] The low haemolytic activity observed for Oct-TriA2 (2,8-D-Lys, 7-Lys) (8) is consistent with its poor antimicrobial activity. […]
VI. Haemolytic activity assays
A 96-well plate was first prepared to contain phosphate-buffered saline (PBS) solutions (100 μL) of tridecaptin analogues 1 – 8 (200 μg/mL) (experiments run in triplicate). 0.1 % Triton X-100 (100 μL) was used as a positive control, while PBS (100 μL) was used as a blank. After the plate had been prepared, defibrinated horse blood (0.5 mL, VWR International) was diluted with phosphate-buffered saline (9.5 mL) and gently shaken. The resulting mixture was centrifuged (5600 rpm, 5 min) using a Thermo Scientific Heraeus Labofuge 200 centrifuge and the supernatant carefully removed. This process was repeated three more times to remove any free hemoglobin. The resulting erythrocyte pellet was gently resuspended in 9.5 mL of PBS. Aliquots of the resulting mixture (100 μL) were added to the appropriate wells on the 96-well plate using a multichannel pipette and the plate incubated at 37 °C for 30 min. The samples were gently mixed by pipetting, and 20 μL of each was added to 200 μL of PBS. Once again, the samples were gently mixed. The diluted samples were then centrifuged (7000 rpm, 5 min) using a SciSpin MINI Microfuge. Supernatant (150 μL) from each sample was added to a new 96-well plate. The absorbance of each sample was individually measured at 415 nm using a Denovix DS-11 FX+ Spectrophotometer. Percent hemolysis of the peptides was calculated relative to Triton X- 100, while the PBS negative control was used as a blank.

The next data set has as its system A. baumannii ACM 11. In kind it is cell-based, Acinetobacter baumannii. Conditions: ACM 11, 18 h. The protocol: as §1, §2
(§3) V. Additional information on multidrug resistant strains
(§4) Organism Resistant Susceptible
(§5) Acinetobacter baumannii ACM 11 Ceftazimide

Another data set concerns K. pneumoniae. In kind it is cell-based, Klebsiella pneumoniae. Conditions: 18 h. The protocol:
as §1, §2

Another data set relates to K. pneumoniae IMP 177. In kind it is cell-based, Klebsiella pneumoniae. Conditions: IMP 177, 18 h. The method, then: as §1, §2
The next data set relates to K. pneumoniae IMP 170. In kind it is cell-based, Klebsiella pneumoniae. Conditions: IMP 170, 18 h. The protocol:
as §1, §2

In another data set the test system is K. pneumoniae IMP 485. In kind it is cell-based, Klebsiella pneumoniae. The settings on record: IMP 485, 18 h. The method, then: as §1, §2
The next data set deals with K. pneumoniae IMP 216. In kind it is cell-based, Klebsiella pneumoniae. Conditions: IMP 216, 18 h. The protocol: as §1, §2
The subject of the next data set is K. pneumoniae IMP 204. In kind it is cell-based, Klebsiella pneumoniae. Conditions: IMP 204, 18 h. The method, then: as §1, §2
The subject of another data set is A. baumannii ACM 29. The data set is classed as cell-based, Acinetobacter baumannii. Conditions: ACM 29, 18 h. The method, then:
as §1, §2
V. Additional information on multidrug resistant strains […]
Organism Resistant Susceptible […]
(§6) Acinetobacter baumannii ACM 29 Ceftazimide
(§7) Isolated from peritoneum of 3-year- Imipenem

For a further data set, the system named is A. baumannii. The data set is classed as cell-based, Acinetobacter baumannii. Conditions: 18 h. The protocol:
as §1, §2, §3, §4
Acinetobacter baumannii Cefotaxime Imipenem
Isolated from sewage contaminated Tetracycline Colistin water (Tripoli, Lebanon). Ofloxacin Tobramycin
as §5, §6, §7

Data set [1] concerns panel of Gram-negative bacteria. Kind of data set: MIC, summary over the panel of strains. In kind it is cell-based. The settings on record: against most strains tested. The text has this:
Previous studies have shown that the tridecaptins have strong activity against clinically relevant Gram-negative strains.[8],[14] This includes A. baumannii and Enterobacteriaceae such as Klebsiella pneumoniae and Enterobacter spp., however P. aeruginosa is less susceptible. The World Health Organization (WHO) currently lists carbapenemase-producing strains of these Gram-negative bacteria as critical priority pathogens. We therefore decided to synthesize a library of novel tridecaptin analogues containing conservative substitutions at positions 2, 7, 8 and/or 12, and evaluate their activity against a panel of these strains (Table 1). This panel of Gram-negative bacteria contains environmental samples isolated from sewage contaminated water in Lebanon, as well as several strains isolated from patients at clinical settings. […]
MilliQ water and solvent B = 0.1 % TFA in ACN. […] High resolution mass spectrometry (HRMS) spectra of all peptides were recorded by Analytical Services and Environmental Projects (ASEP) at Queen’s University Belfast on a Waters LCT Premier ToF mass spectrometer using the electrospray ionisation (ESI) technique. […]
All minimum inhibitory concentrations (MICs) were determined according to Clinical and Standards Laboratory Institute (CLSI) guidelines. […]

Structures are written as SMILES. Where a SMILES comes first, the peptide text is derived from it. [ ]: non-standard residue; d: D form. The star is where a group is joined. d(aIle) = CC[C@H](C)[C@@H](N)C(=O)O; dOrn = NCCC[C@@H](N)C(=O)O; dDab = NCC[C@@H](N)C(=O)O; Octanoyl = CCCCCCCC(=O)*; Orn = NCCC[C@H](N)C(=O)O; Dab = NCC[C@H](N)C(=O)O

Consider `CCCCCCCC(=O)N[C@@H](C(=O)N[C@H](CCCCN)C(=O)NCC(=O)N[C@H](CO)C(=O)N[C@H](Cc1c[nH]c2ccccc12)C(=O)N[C@@H](CO)C(=O)N[C@@H](CCCCN)C(=O)N[C@H](CCN)C(=O)N[C@@H](Cc1ccccc1)C(=O)N[C@@H](CCC(=O)O)C(=O)N[C@H](C(=O)N[C@@H](C(=O)N[C@@H](C)C(=O)O)[C@@H](C)CC)C(C)C)C(C)C` [Peptide 4, Oct-TriA1 (2-D-Lys, 7-Lys)] (Octanoyl-[dV][dK]G[dS][dW]SK[dDab]FEV[d(aIle)]A-OH), for which the “Peptide MIC” value in the data set on P. pseudoalcaligenes was 25 μg mL^–1; with E. cloacae, 25 μg mL^–1; in the data set on A. baumannii ACM 11, 25 μg mL^–1; with K. pneumoniae, 50 μg mL^–1; with K. pneumoniae IMP 177, 25 μg mL^–1; in the data set on K. pneumoniae IMP 170, 25 μg mL^–1. Besides, the “Peptide MIC” value in the data set on K. pneumoniae IMP 485 was determined as 25 μg mL^–1; with K. pneumoniae IMP 216, 25 μg mL^–1; in the data set on K. pneumoniae IMP 204, 25 μg mL^–1; in the data set with A. baumannii ACM 29, 50 μg mL^–1; with A. baumannii it was 50 μg mL^–1. Also, the “antimicrobial activity relative to Oct-TriA1” value in the data set with P. pseudoalcaligenes was “enhanced antimicrobial activity”. Also, in the data set with Equine erythrocytes, the “% haemolysis” value came out at 71.4%.
Consider `CCCCCCCC(=O)N[C@@H](C(=O)N[C@H](CCCCN)C(=O)NCC(=O)N[C@H](CO)C(=O)N[C@H](Cc1c[nH]c2ccccc12)C(=O)N[C@@H](CO)C(=O)N[C@@H](CCCCN)C(=O)N[C@H](CCCCN)C(=O)N[C@@H](Cc1ccccc1)C(=O)N[C@@H](CCC(=O)O)C(=O)N[C@H](C(=O)N[C@@H](C(=O)N[C@@H](C)C(=O)O)[C@@H](C)CC)C(C)C)C(C)C` [Peptide 6, Oct-TriA1 (2,8-D-Lys, 7-Lys)] (HELM PEPTIDE1{[CCCCCCCC(=O)[*:2]].[dV].[dK].G.[dS].[dW].S.K.[dK].F.E.V.[CC[C@H](C)[C@@H](N[*:1])C(=O)[*:2]].A}$$$$V2.0), for which the “Peptide MIC” value in the data set on P. pseudoalcaligenes was found to be 100 μg mL^–1; in the data set on E. cloacae, 25 μg mL^–1; in the data set with A. baumannii ACM 11 it was 25 μg mL^–1; in the data set with K. pneumoniae it was 50 μg mL^–1; in the data set with K. pneumoniae IMP 177, 25 μg mL^–1; in the data set with K. pneumoniae IMP 170, 50 μg mL^–1. In addition, the “Peptide MIC” value in the data set on K. pneumoniae IMP 485 is 25 μg mL^–1; in the data set with K. pneumoniae IMP 216, 25 μg mL^–1; with K. pneumoniae IMP 204 it was 50 μg mL^–1; in the data set with A. baumannii ACM 29, 25 μg mL^–1; in the data set on A. baumannii, 6.25 μg mL^–1. Further, in the data set on Equine erythrocytes, the “% haemolysis” value was 86.4%.
As for `CCCCCCCC(=O)N[C@@H](C(=O)N[C@H](CCN)C(=O)NCC(=O)N[C@H](CO)C(=O)N[C@H](Cc1c[nH]c2ccccc12)C(=O)N[C@@H](CO)C(=O)N[C@@H](CCN)C(=O)N[C@H](CCN)C(=O)N[C@@H](Cc1ccccc1)C(=O)N[C@@H](CCC(=O)O)C(=O)N[C@H](C(=O)N[C@@H](C(=O)N[C@@H](C)C(=O)O)C(C)C)C(C)C)C(C)C` [Peptide 2, Oct-TriA2] (Octanoyl-[dV][dDab]G[dS][dW]S[Dab][dDab]FEV[dV]A-OH), the “Peptide MIC” value in the data set on P. pseudoalcaligenes is recorded as 50 μg mL^–1; in the data set on E. cloacae, 6.25 μg mL^–1; with A. baumannii ACM 11, 100 μg mL^–1; in the data set with K. pneumoniae, 12.5 μg mL^–1; with K. pneumoniae IMP 177, 25 μg mL^–1; with K. pneumoniae IMP 170, 12.5 μg mL^–1. In addition, the “Peptide MIC” value worked out at 12.5 μg mL^–1 in the data set with K. pneumoniae IMP 485; 12.5 μg mL^–1 in the data set with K. pneumoniae IMP 216; 12.5 μg mL^–1 with K. pneumoniae IMP 204; 50 μg mL^–1 with A. baumannii ACM 29; 25 μg mL^–1 in the data set on A. baumannii. The “antimicrobial activity relative to Oct-TriA1 (1)” value in data set [1] was “two- to four-fold less active”. In addition, the “% haemolysis” value with Equine erythrocytes is 52.1%.
Turning to `CCCCCCCC(=O)N[C@@H](C(=O)N[C@H](CCCN)C(=O)NCC(=O)N[C@H](CO)C(=O)N[C@H](Cc1c[nH]c2ccccc12)C(=O)N[C@@H](CO)C(=O)N[C@@H](CCCN)C(=O)N[C@H](CCCN)C(=O)N[C@@H](Cc1ccccc1)C(=O)N[C@@H](CCC(=O)O)C(=O)N[C@H](C(=O)N[C@@H](C(=O)N[C@@H](C)C(=O)O)[C@@H](C)CC)C(C)C)C(C)C` [Peptide 5, Oct-TriA1 (2,8-D-Orn, 7-Orn)] (Octanoyl-[dV][dOrn]G[dS][dW]S[Orn][dOrn]FEV[d(aIle)]A-OH), the “Peptide MIC” value in the data set on P. pseudoalcaligenes turned out to be 50 μg mL^–1; in the data set with E. cloacae it was 6.25 μg mL^–1; in the data set on A. baumannii ACM 11 it was 50 μg mL^–1; in the data set with K. pneumoniae, 12.5 μg mL^–1; with K. pneumoniae IMP 177, 25 μg mL^–1; with K. pneumoniae IMP 170, 25 μg mL^–1. The “Peptide MIC” value with K. pneumoniae IMP 485 is 25 μg mL^–1; with K. pneumoniae IMP 216 it was 6.25 μg mL^–1; in the data set with K. pneumoniae IMP 204, 25 μg mL^–1; with A. baumannii ACM 29, 50 μg mL^–1; in the data set with A. baumannii it was 12.5 μg mL^–1. The “% haemolysis” value in the data set with Equine erythrocytes is recorded as 77.5%.
Turning to `CCCCCCCC(=O)N[C@@H](C(=O)N[C@H](CCCN)C(=O)NCC(=O)N[C@H](CO)C(=O)N[C@H](Cc1c[nH]c2ccccc12)C(=O)N[C@@H](CO)C(=O)N[C@@H](CCCN)C(=O)N[C@H](CCN)C(=O)N[C@@H](Cc1ccccc1)C(=O)N[C@@H](CCC(=O)O)C(=O)N[C@H](C(=O)N[C@@H](C(=O)N[C@@H](C)C(=O)O)[C@@H](C)CC)C(C)C)C(C)C` [Peptide 3, Oct-TriA1 (2-D-Orn, 7-Orn)] (Octanoyl-[dV][dOrn]G[dS][dW]S[Orn][dDab]FEV[d(aIle)]A-OH), the “Peptide MIC” value in the data set on P. pseudoalcaligenes came to 12.5 μg mL^–1; in the data set on E. cloacae it was 25 μg mL^–1; in the data set with A. baumannii ACM 11, 50 μg mL^–1; in the data set with K. pneumoniae, 100 μg mL^–1; with K. pneumoniae IMP 177 it was 25 μg mL^–1; with K. pneumoniae IMP 170 it was 25 μg mL^–1. Besides, the “Peptide MIC” value in the data set with K. pneumoniae IMP 485 amounted to 25 μg mL^–1; in the data set on K. pneumoniae IMP 216, 25 μg mL^–1; in the data set on K. pneumoniae IMP 204 it was 25 μg mL^–1; in the data set on A. baumannii ACM 29 it was 50 μg mL^–1; with A. baumannii it was 100 μg mL^–1. Further, the “antimicrobial activity relative to Oct-TriA1” value in the data set on P. pseudoalcaligenes is “enhanced antimicrobial activity”. Besides, the “% haemolysis” value in the data set with Equine erythrocytes turned out to be 66.7%.
